Experimental data: US11458189B2, “Cytoprotective drugs” (BALMES TRANSPLANTATION, priority 2017, dated 2022)
Starred links: 1 amine or outer side, 2 acyl side, 3 side chain; linkers in the order of their positions; H or OH if unused. Positions of bridges follow the written chain, without caps; N, C: chain ends. Non-standard residues stand in square brackets, D forms with d. Residues, ends and D or L forms follow the SMILES beside them. ξ: configuration not given here. *: point of attachment. hTyr(3S-OH,4S-OH,3'-OSO3H) = N[C@H](C(=O)O)[C@H](O)[C@@H](O)c1ccc(O)c(OS(=O)(=O)O)c1; pTerphenylCO(4''-OnC5H11) = CCCCCOc1ccc(-c2ccc(-c3ccc(C(=O)*)cc3)cc2)cc1; Orn(4R-OH,5R-OH) = O=C([C@H](C[C@@H](O)[C@@H](O)N[*:3])N[*:1])[*:2]; hTyr(3S-OH,4S-OH) = N[C@H](C(=O)O)[C@H](O)[C@@H](O)c1ccc(O)cc1; Pro(3S-OH,4S-Me) = C[C@H]1CN[C@H](C(=O)O)[C@H]1O; X1 = CCCCCOc1ccc(-c2cc(-c3ccc(C(=O)*)cc3)no2)cc1; Gln(3R-OH) = NC(=O)C[C@@H](O)[C@H](N)C(=O)O; ξPro(4R-OH) = O=C(O)C1C[C@@H](O)CN1; Hyp = O=C(O)[C@@H]1C[C@@H](O)CN1

System: Sprague Dawley rats
Test: Survival in acute renal failure model (unilateral renal ischemia-reperfusion with contralateral nephrectomy)
Type: in vivo, rat
Conditions: up to 7 days after reperfusion, control group 29%
Experimental: The protocol is similar to the one described by Narayan P et al, Am J Physiol Renal Physiol, 311(2):F352-61, 2016 and was approved by an ethics committee. In summary, general anesthesia is induced in male Sprague Dawley rats (250-300 g) using sodium pentobarbital (60 mg/kg, ip) instead of ketamine/xylazine in the protocol described by Narayan P et al, Am J Physiol Renal Physiol, 311 (2): F352-61, 2016. A skin incision is made on the dorsal surface and the left kidney is exposed by incisions on the flank. The left renal pedicle is then isolated and clamped for 60 minutes using atraumatic vascular clamps. The kidneys are replaced in the abdominal cavity to maintain temperature and the incision is covered with gauze soaked in 0.9% saline. After the ischemia time (60 minutes), the clamps are released to begin reperfusion. Reperfusion is monitored (kidney color change) for 1 to 2 minutes and physiological saline (1 mL) is administered to prevent dehydration. Next, a right kidney nephrectomy is performed and the incisions are closed with sutures. The animals are kept at approximately 37° C. using a thermoregulated system during the operation. Buprenorphine (0.2 mg/kg sc) is administered before the animals are returned to their cages and once a day until 4 days after reperfusion. […]
The compounds Micafungin (0.25 mg/kg), Anidulafungin (0.35 mg/kg) or the combination of the compounds Micafungin (0.25 mg/kg) and Allopurinol (3 mg/kg) are administered solubilized in physiological saline as a single intravenous injection into the tail vein 60 (±15) minutes before the onset of ischemia. The volume of administration of the compounds is determined on the basis of the body weight (2 mL/kg) of each animal. […]
For each experiment the curve of the number of surviving animals versus the number of days post-ischemia-reperfusion (Kaplan-Meier curve) is shown. The x-axis is graduated from the first day =0 to the seventh day =6 The y-axis is graduated from 0% to 100% of the initial population of the analyzed group. […]

SMILES	Surviving animals at end of Kaplan-Meier curve (% of initial population of the group) (Anidulafungin 0.35 mg/kg single iv injection 60 min before ischemia) [%]	Surviving animals at end of Kaplan-Meier curve (% of initial population of the group) (Micafungin 0.25 mg/kg single iv injection 60 min before ischemia) [%]
CCCCCOc1ccc(-c2ccc(-c3ccc(C(=O)N[C@H]4C[C@@H](O)[C@@H](O)NC(=O)[C@@H]5[C@@H](O)[C@@H](C)CN5C(=O)[C@H]([C@@H](C)O)NC(=O)[C@H]([C@H](O)[C@@H](O)c5ccc(O)cc5)NC(=O)C5C[C@@H](O)CN5C(=O)[C@H]([C@@H](C)O)NC4=O)cc3)cc2)cc1 (stereo partly drawn) [Anidulafungin] ({pTerphenylCO(4''-OnC5H11)}-[Orn(4R-OH,5R-OH)]T[ξPro(4R-OH)][hTyr(3S-OH,4S-OH)]T[Pro(3S-OH,4S-Me)]; lactam 1-C)	75	–
CCCCCOc1ccc(-c2cc(-c3ccc(C(=O)N[C@H]4C[C@@H](O)[C@@H](O)NC(=O)[C@@H]5[C@@H](O)[C@@H](C)CN5C(=O)[C@H]([C@H](O)CC(N)=O)NC(=O)[C@H]([C@H](O)[C@@H](O)c5ccc(O)c(OS(=O)(=O)O)c5)NC(=O)[C@@H]5C[C@@H](O)CN5C(=O)[C@H]([C@@H](C)O)NC4=O)cc3)no2)cc1 [Micafungin, {5-[(1S,2S)-2-[(3S,6S,9S,11R,15S,18S,20R,21R,24S,25S,26S)-3-[(1R)-2-carbamoyl-1-hydroxyethyl]-11,20,21,25-tetrahydroxy-15-[(1R)-1-hydroxyethyl]-26-methyl-2,5,8,14,17,23-hexaoxo-18-[(4-{5-[4-(pentyloxy)phenyl]-1,2-oxazol-3-yl}benzene)amido]-1,4,7,13,16,22-hexaazatricyclo[22.3.0.0]heptacosan-6-yl]-1,2-dihydroxyethyl]-2-hydroxyphenyl}oxidanesulfonic acid] (X1-[Orn(4R-OH,5R-OH)]T[Hyp][hTyr(3S-OH,4S-OH,3'-OSO3H)][Gln(3R-OH)][Pro(3S-OH,4S-Me)]; lactam 1-C)	–	67
